Like-named read-outs stand apart in the source and are kept apart here.
Experiments:
[1] = target: T1, Recombinant human HDAC1 (Homo sapiens, UniProt Q13547); test: Human HDAC enzyme inhibitor Fluor-de-Lys assay, HDAC1; assay type: biochemical
T1 construct: FLAG (C); made in house
Outline: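 Fluor-de-Lys format at room temperature (23° C.): compounds titrated 10-point, 1:3, preincubated with HDAC before substrate addition; HDAC1 run at 0.3 nM enzyme with 20 μM BML-KI104. Developer with excess HDAC inhibitor ends the reaction, and trypsin-liberated AMC fluorescence is the read-out.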

[2] = tested on: KARN cells (Jurkat 2C4); test: cells; assay type: cell-based
Outline: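 Luminescence (Steady-Glo, 10 min, room temperature) measured next day in KARN Jurkat 2C4 cells given compounds at up to 40 μM final with 0.4% DMSO. Percent activation normalised to DMSO (0%) and 2 μM SAHA (100%), fitted by 4-parameter curve.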

[3] = recombinant human HDAC1, Fluor-de-Lys assay
[4] = Homo sapiens, Jurkat, read-out: Karn EC50 (nM) 0.1% NHS, 0.1% normal human serum, luciferase induction, 100% = 2 μM SAHA
[5] = Homo sapiens, Jurkat, read-out: Karn EC50 (nM) 5% NHS, 5% normal human serum, luciferase induction, 100% = 2 μM SAHA
[6] = Homo sapiens, Jurkat, read-out: Karn EC50 (nM) 0.1% NHS, 0.1% normal human serum
[7] = Homo sapiens, Jurkat, read-out: Karn EC50 (nM) 5% NHS, 5% normal human serum

T1 sequence (Q13547 whole entry): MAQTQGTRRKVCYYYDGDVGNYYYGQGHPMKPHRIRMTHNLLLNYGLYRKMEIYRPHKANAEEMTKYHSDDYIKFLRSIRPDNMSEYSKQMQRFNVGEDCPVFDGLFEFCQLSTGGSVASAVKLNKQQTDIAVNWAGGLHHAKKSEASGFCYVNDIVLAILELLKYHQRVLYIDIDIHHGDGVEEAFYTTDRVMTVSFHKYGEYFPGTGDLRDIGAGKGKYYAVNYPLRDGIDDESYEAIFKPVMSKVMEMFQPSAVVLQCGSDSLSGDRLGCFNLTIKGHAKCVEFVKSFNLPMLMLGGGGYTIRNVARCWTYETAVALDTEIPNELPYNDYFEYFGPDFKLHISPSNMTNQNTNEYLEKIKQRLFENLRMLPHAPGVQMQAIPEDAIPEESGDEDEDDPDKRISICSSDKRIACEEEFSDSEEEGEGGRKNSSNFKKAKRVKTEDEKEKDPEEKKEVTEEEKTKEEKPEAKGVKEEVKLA

SMILES	IC50 [1, 3] [nM]	EC50 [2, 4] [nM]	EC50 [2, 5] [nM]	IC50 [1] [nM]	EC50 [2, 6] [nM]	EC50 [2, 7] [nM]	EC50 ([2]; read-out: Karn EC50 (nM) 0.1% NHS, 0.1% normal human serum, luciferase induction, 100% = 2 μM SAHA) [nM]	EC50 ([2]; read-out: Karn EC50 (nM) 5% NHS, 5% normal human serum, luciferase induction, 100% = 2 μM SAHA) [nM]
CCC(=O)CCCCC[C@H](NC(=O)[C@H]1CC12CCN(C)CC2)c1ncc(-c2ccc(C(=O)NC3CCOC3)cc2)[nH]1 (some centres unmarked) [Compound 258]	7.82	7440	7840	–	–	–	–	–
CCC(=O)CCCCC[C@H](NC(=O)[C@H]1CC12CCN(C)CC2)c1ncc(-c2coc3ccccc3c2=O)[nH]1 [Compound 86]	–	–	–	15.9	1060	1510	–	–
CCC(=O)CCCCC[C@H](NC(=O)[C@H]1CC12CCN(C)CC2)c1ncc(-c2ccc3ccc(C)nc3c2F)[nH]1 [Compound 354]	1.82	264	295	–	–	–	–	–
CCC(=O)CCCCC[C@H](NC(=O)C1(N)CC2(CN(C)C2)C1)c1ncc(-c2cc3ccccc3nc2OC)[nH]1 [Compound 276]	1.56	1560	4780	–	–	–	–	–
CCC(=O)CCCCC[C@H](NC(=O)[C@H]1CC12CCN(CC)CC2)c1ncc(-c2ccc(-n3cccn3)cc2)o1 [Compound 95]	–	–	–	5.26	522	747	–	–
CCC(=O)CCCCC[C@H](NC(=O)[C@H]1CC12CCN(CC)CC2)c1ncc(-c2ccc3c(ccc(=O)n3C)c2)o1 [Compound 97]	–	–	–	6.52	563	660	–	–
CCC(=O)CCCCC[C@H](NC(=O)C1CC12CCN(CC)CC2)c1nc(-c2ccc(F)cc2)[nH]c1-c1cn[nH]c1 (some centres unmarked) [Compound 249]	17.4	> 40000	–	–	–	–	–	–
CCC(=O)CCCCCC(NC(=O)C1CCC2(CC1)OC(=O)c1cnccc12)c1nnc(-c2cc3ccccc3nc2OC)o1 (centres unmarked) [Compound 364]	63	1770	4310	–	–	–	–	–
CCC(=O)CCCCC[C@H](NC(=O)C1CC12CCN(CC)CC2)c1nc(-c2ccc(F)cc2)[nH]c1-c1ccn(C)c1 (some centres unmarked) [Compound 251]	2.73	143	216	–	–	–	–	–
CCC(=O)CCCCC[C@H](NC(=O)[C@H]1CC12CCN(C)CC2)c1ncc(-c2cnc3c(c2)ncn3C)[nH]1 [Compound 256]	74.6	23700	> 40000	–	–	–	–	–
CCC(=O)CCCCC[C@H](NC(=O)[C@H]1CC12CCN(C(C)C)CC2)c1ncc(-c2ccc3nc(C4CC4)ccc3c2)[nH]1 [Compound 100]	–	–	–	< 1.5	68	64	–	–
CCCC(=O)CCCCC[C@H](NC(=O)[C@H]1CC12CCN(C)CC2)c1ncc(-c2ccc(F)cc2)[nH]1 [Compound 239]	13.9	324	581	–	–	–	–	–
CCC(=O)CCCCC[C@H](NC(=O)[C@H]1CC12CCN(CC)CC2)c1ncc(-c2ccc3nn(C4CC4)cc3c2)[nH]1 [Compound 238]	0.22	66	45	–	–	–	–	–
CCC(=O)CCCCC[C@H](NC(=O)[C@H]1CC12CCN(C(C)C)CC2)c1ncc(-c2ccc3nc(C)ccc3c2)[nH]1 [Compound 83]	–	–	–	< 1.5	64	60	–	–
CCC(=O)CCCCC[C@H](NC(=O)[C@H]1CC12CCN(C(C)C)CC2)c1ncc(-c2cc3ccccc3nc2OC)o1 [Compound 99]	–	–	–	3.55	162	310	–	–
CCC(=O)CCCCC[C@H](NC(=O)[C@H]1CC12CCN(C)CC2)c1ncc(-c2ccccc2F)[nH]1 [Compound 290]	15.4	415	519	–	–	–	–	–
CCOc1ncc(-c2cnc([C@H](CCCCCC(=O)CC)NC(=O)[C@H]3CC34CCN(C)CC4)[nH]2)cn1 [Compound 266]	155	9900	13800	–	–	–	–	–
CCC(=O)CCCCC[C@H](NC(=O)C1=NOC2(CCN(CC)CC2)C1)c1ncc(-c2cc3ccc(=O)n(C)c3cc2OC)o1 [Compound 235]	0.7	249	411	–	–	–	–	–
CCC(=O)CCCCC[C@H](NC(=O)CC1CC2(CNC2)C1)c1ncc(-c2ccccc2)[nH]1 [Compound 297]	27.9	5840	15800	–	–	–	–	–
CCCn1cc(-c2[nH]c(-c3ccc(F)cc3)nc2C(CCCCCC(=O)CC)NC(=O)C2CC23CCN(CC)CC3)cn1 (centres unmarked) [Compound 254]	29.4	5340	6040	–	–	–	–	–
CCC(=O)CCCCC[C@H](NC(=O)[C@H]1CC12CCN(C)CC2)c1ncc(-c2ccc(C(F)(F)F)cc2)[nH]1 [Compound 284]	18.6	606	598	–	–	–	–	–
CCC(=O)CCCCC[C@H](NC(=O)C1CCC2(CC1)CN(C(C)C)C2)c1ncc(-c2cc3ccccc3nc2OC)[nH]1 [Compound 272]	2.08	163	721	–	–	–	–	–
CCC(=O)CCCCC[C@H](NC(=O)[C@H]1CC12CCN(C)CC2)c1ncc(-c2cnc(OC)nc2)[nH]1 [Compound 255]	168	13300	14800	–	–	–	–	–
CCC(=O)CCCCC[C@H](NC(=O)C1CCC2(CC1)CNC2)c1nnc(-c2cc3ccccc3nc2OC)o1 [Compound 299]	12.2	7000	9270	–	–	–	–	–
CCC(=O)CCCCC[C@H](NC(=O)[C@H]1CC12CCN(C)CC2)c1ncc(-c2cnc(-n3cc(C)cn3)nc2)[nH]1 [Compound 257]	64.8	8080	10600	–	–	–	–	–
CCC(=O)CCCCC[C@H](NC(=O)[C@H]1CC12CCN(C)CC2)c1ncc(-c2ccc(-n3nc(C)cc3C)cc2)[nH]1 [Compound 260]	13.1	717	913	–	–	–	–	–
CCC(=O)CCCCC[C@H](NC(=O)[C@H]1CC12CCN(C(C)C)CC2)c1ncc(-c2ccc3c(ccc(=O)n3C)c2)o1 [Compound 96]	–	–	–	6.9	1370	1510	–	–
CCC(=O)CCCCC[C@H](NC(=O)[C@H]1CC12CCN(C)CC2)c1ncc(-c2cnc3cccnc3c2)[nH]1 [Compound 259]	23.8	7930	8180	–	–	–	–	–
CCC(=O)CCCCC[C@H](NC(=O)C1=NOC2(CCN(CC)CC2)C1)c1ncc(-c2cc3ccc(C)nc3cc2F)o1 [Compound 269]	5.18	–	–	–	–	–	746	1210
CCC(=O)CCCCC[C@H](NC(=O)CC1CC2(C1)CN(C(C)C)C2)c1ncc(-c2cc3ccccc3nc2OC)[nH]1 [Compound 273]	< 1.5	111	438	–	–	–	–	–
